Results on ten compounds are retold here after BindingDB's records for doi:10.1021/jm00161a033 (1986).

The assay has as its target Aldose reductase (Oryctolagus cuniculus). Kind of assay: In vitro inhibition of rabbit lens aldose reductase.
A word on the IC50: it is the concentration that gives 50% inhibition. Low readings indicate greater potency in that assay, high ones weaker potency in that assay. Turning to `CC(C(=O)O)c1cc(O)c2c(=O)c3ccccc3ccc2c1` (stereo not given) [2-(4-Hydroxy-5-oxo-5H-dibenzo[a,d]cyclohepten-2-yl)-propionic acid], it took 2700 nM to reach half-maximal inhibition (IC50).

Compound `CC(C(=O)O)c1cc(O)c2c(c1)CCc1ccccc1C2=O` (stereo not given) [2-(4-Hydroxy-5-oxo-10,11-dihydro-5H-dibenzo[a,d]cyclohepten-2-yl)-propionic acid] registered an IC50 of 210 nM.

Turning to `O=C1Cc2ccc3c(c2O1)CCc1ccccc1C3=O` [11,12-Dihydro-3H-1-oxa-benzo[4,5]cyclohepta[1,2-e]indene-2,6-dione], half-maximal inhibition (IC50) was put at 770 nM.

`O=C(O)Cc1cc(O)c2c(=O)c3ccccc3ccc2c1` [(4-Hydroxy-5-oxo-5H-dibenzo[a,d]cyclohepten-2-yl)-acetic acid]: half-maximal inhibition (IC50) required 760 nM.

With `O=C(O)Cc1cc(O)c2c(c1)CCc1ccccc1C2=O` [(4-Hydroxy-5-oxo-10,11-dihydro-5H-dibenzo[a,d]cyclohepten-2-yl)-acetic acid], the IC50 came to 110000 nM.

`O=C(O)Cc1ccc2c(=O)c3ccccc3ccc2c1` [(5-Oxo-5H-dibenzo[a,d]cyclohepten-2-yl)-acetic acid] displayed an IC50 of 1000 nM.

As for `O=C(O)Cc1ccc2c(c1)CCc1ccccc1C2=O` [(5-Oxo-10,11-dihydro-5H-dibenzo[a,d]cyclohepten-2-yl)-acetic acid], the IC50 came to 160000 nM.

Compound `O=C(O)Cc1ccc2c(c1)CCc1cccc(O)c1C2=O` [(6-Hydroxy-5-oxo-10,11-dihydro-5H-dibenzo[a,d]cyclohepten-2-yl)-acetic acid] showed an IC50 of 280000 nM.

As to `O=C(O)Cc1ccc2c(c1)CCc1ccc(O)cc1C2=O` [(7-Hydroxy-5-oxo-10,11-dihydro-5H-dibenzo[a,d]cyclohepten-2-yl)-acetic acid], the IC50 is 830 nM.

For `O=C(O)Cc1ccc2c(c1)OCc1ccccc1C2=O` [Oxepinac], the IC50 was 330 nM.
